Measured values taken from ChEMBL document CHEMBL4507269, “Data for DCP probe BAY-386” (2021).

How the values were obtained:
[1] = tested on: Tyrosine-protein kinase ABL1 (Homo sapiens), P00519 [E255K]; conditions: Compound concentration 1000.0 nM
[2] = tested on: ALK tyrosine kinase receptor (Homo sapiens), Q9UM73 [C1156Y]; conditions: Compound concentration 1000.0 nM
[3] = molecular target: Aurora kinase C (Homo sapiens) (UniProt Q9UQB9); conditions: Compound concentration 1000.0 nM
[4] = tested on: Serine/threonine-protein kinase B-raf (Homo sapiens), P15056 [V600E]; conditions: Compound concentration 1000.0 nM
[5] = molecular target: Mitotic checkpoint serine/threonine-protein kinase BUB1 (Homo sapiens) (UniProt O43683); conditions: Compound concentration 1000.0 nM
[6] = molecular target: Cyclin-dependent kinase 4 (Homo sapiens) (UniProt P11802); conditions: Compound concentration 1000.0 nM
Sequence of Cyclin-dependent kinase 4 (Homo sapiens) (P11802 whole entry): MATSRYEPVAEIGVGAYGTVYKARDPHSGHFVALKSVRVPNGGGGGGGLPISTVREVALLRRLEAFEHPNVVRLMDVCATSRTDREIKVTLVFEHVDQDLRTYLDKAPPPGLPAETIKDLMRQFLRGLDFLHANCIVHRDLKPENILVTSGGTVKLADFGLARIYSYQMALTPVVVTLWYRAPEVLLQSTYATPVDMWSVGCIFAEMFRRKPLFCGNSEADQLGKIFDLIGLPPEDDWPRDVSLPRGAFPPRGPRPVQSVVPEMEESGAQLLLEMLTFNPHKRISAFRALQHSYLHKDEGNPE

[7] = molecular target: Cyclin-dependent kinase 4 (Homo sapiens) (UniProt P11802); conditions: Compound concentration 1000.0 nM; remark: listed apart in the source
[8] = molecular target: Cyclin-dependent kinase 8 (Homo sapiens) (UniProt P49336); conditions: Compound concentration 1000.0 nM
[9] = molecular target: Megakaryocyte-associated tyrosine-protein kinase (Homo sapiens) (UniProt P42679); conditions: Compound concentration 1000.0 nM
[10] = molecular target: Fibroblast growth factor receptor 2 (Homo sapiens) (UniProt P21802); conditions: Compound concentration 1000.0 nM
[11] = molecular target: Tyrosine-protein kinase Fyn (Homo sapiens) (UniProt P06241); conditions: Compound concentration 1000.0 nM
Sequence of Tyrosine-protein kinase Fyn (Homo sapiens) (P06241 2-537 limits assumed): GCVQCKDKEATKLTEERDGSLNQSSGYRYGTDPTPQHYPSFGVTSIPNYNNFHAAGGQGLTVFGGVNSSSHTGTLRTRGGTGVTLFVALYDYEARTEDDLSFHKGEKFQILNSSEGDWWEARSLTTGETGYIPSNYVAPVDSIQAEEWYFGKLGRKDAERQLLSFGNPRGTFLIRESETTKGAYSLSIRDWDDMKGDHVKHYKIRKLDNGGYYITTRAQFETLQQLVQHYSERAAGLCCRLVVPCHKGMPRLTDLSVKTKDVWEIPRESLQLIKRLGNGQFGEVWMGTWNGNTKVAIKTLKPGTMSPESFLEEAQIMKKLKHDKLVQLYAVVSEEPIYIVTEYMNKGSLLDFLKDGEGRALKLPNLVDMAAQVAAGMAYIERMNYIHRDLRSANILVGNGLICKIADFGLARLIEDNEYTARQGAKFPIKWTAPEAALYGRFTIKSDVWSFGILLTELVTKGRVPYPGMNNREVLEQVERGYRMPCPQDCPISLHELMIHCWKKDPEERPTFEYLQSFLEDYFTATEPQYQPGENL

[12] = molecular target: Mitogen-activated protein kinase 10 (Homo sapiens) (UniProt P53779); conditions: Compound concentration 1000.0 nM
Sequence of Mitogen-activated protein kinase 10 (Homo sapiens) (P53779 whole entry): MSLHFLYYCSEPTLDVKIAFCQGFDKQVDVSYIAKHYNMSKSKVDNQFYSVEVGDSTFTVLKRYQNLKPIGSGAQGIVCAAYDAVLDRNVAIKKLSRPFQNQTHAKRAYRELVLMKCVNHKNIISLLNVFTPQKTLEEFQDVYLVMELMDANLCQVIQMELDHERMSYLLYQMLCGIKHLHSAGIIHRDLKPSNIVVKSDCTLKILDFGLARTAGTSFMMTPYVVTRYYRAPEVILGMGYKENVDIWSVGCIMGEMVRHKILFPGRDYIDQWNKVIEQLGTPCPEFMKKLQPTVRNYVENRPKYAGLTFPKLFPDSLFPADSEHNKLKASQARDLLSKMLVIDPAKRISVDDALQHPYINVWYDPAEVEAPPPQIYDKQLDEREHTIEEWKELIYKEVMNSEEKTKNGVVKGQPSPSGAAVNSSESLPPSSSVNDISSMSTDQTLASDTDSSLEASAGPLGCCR

[13] = molecular target: Serine/threonine-protein kinase LATS1 (Homo sapiens) (UniProt O95835); conditions: Compound concentration 1000.0 nM
Sequence of Serine/threonine-protein kinase LATS1 (Homo sapiens) (O95835 whole entry): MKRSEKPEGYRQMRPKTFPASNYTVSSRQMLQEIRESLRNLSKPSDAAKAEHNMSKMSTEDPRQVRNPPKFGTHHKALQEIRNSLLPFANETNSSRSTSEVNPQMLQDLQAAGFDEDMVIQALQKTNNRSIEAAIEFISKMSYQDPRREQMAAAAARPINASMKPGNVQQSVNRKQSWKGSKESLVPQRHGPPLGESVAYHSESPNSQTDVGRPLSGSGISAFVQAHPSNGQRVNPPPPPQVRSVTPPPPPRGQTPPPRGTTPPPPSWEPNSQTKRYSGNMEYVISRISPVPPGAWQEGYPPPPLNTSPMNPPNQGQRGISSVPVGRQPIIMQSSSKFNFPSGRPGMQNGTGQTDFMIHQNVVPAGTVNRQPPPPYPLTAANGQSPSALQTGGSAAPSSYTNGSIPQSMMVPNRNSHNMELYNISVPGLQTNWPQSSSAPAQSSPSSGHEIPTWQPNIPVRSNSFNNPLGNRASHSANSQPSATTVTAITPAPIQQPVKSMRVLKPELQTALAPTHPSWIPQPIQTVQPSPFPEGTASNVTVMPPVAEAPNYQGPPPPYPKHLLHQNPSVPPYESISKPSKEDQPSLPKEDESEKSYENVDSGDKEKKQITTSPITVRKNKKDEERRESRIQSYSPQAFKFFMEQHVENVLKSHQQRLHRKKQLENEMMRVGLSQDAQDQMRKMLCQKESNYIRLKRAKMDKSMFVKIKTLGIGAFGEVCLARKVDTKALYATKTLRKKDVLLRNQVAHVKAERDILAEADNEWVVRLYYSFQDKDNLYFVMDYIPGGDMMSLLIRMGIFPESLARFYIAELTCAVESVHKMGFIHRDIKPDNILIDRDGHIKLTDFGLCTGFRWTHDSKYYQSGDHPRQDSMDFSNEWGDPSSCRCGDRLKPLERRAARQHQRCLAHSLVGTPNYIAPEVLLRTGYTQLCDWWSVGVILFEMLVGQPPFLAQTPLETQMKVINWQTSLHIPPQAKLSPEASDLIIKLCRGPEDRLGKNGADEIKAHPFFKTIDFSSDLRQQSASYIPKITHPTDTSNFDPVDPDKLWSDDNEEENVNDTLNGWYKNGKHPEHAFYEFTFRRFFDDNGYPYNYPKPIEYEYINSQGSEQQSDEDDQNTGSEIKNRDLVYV

[14] = molecular target: Serine/threonine-protein kinase Nek10 (Homo sapiens) (UniProt Q6ZWH5); conditions: Compound concentration 1000.0 nM
[15] = molecular target: Serine/threonine-protein kinase Nek4 (Homo sapiens) (UniProt P51957); conditions: Compound concentration 1000.0 nM
[16] = tested on: Phosphatidylinositol 4,5-bisphosphate 3-kinase catalytic subunit alpha isoform (Homo sapiens), P42336 [E545A]; conditions: Compound concentration 1000.0 nM
[17] = tested on: Phosphatidylinositol 4,5-bisphosphate 3-kinase catalytic subunit alpha isoform (Homo sapiens), P42336 [H1047L]; conditions: Compound concentration 1000.0 nM
[18] = tested on: Phosphatidylinositol 4,5-bisphosphate 3-kinase catalytic subunit alpha isoform (Homo sapiens), P42336 [Q546K]; conditions: Compound concentration 1000.0 nM
[19] = molecular target: Serine/threonine-protein kinase N1 (Homo sapiens) (UniProt Q16512); conditions: Compound concentration 1000.0 nM
[20] = molecular target: Protein kinase C epsilon type (Homo sapiens) (UniProt Q02156); conditions: Compound concentration 1000.0 nM
[21] = molecular target: Serine/threonine-protein kinase D2 (Homo sapiens) (UniProt Q9BZL6); conditions: Compound concentration 1000.0 nM
Sequence of Serine/threonine-protein kinase D2 (Homo sapiens) (Q9BZL6 whole entry): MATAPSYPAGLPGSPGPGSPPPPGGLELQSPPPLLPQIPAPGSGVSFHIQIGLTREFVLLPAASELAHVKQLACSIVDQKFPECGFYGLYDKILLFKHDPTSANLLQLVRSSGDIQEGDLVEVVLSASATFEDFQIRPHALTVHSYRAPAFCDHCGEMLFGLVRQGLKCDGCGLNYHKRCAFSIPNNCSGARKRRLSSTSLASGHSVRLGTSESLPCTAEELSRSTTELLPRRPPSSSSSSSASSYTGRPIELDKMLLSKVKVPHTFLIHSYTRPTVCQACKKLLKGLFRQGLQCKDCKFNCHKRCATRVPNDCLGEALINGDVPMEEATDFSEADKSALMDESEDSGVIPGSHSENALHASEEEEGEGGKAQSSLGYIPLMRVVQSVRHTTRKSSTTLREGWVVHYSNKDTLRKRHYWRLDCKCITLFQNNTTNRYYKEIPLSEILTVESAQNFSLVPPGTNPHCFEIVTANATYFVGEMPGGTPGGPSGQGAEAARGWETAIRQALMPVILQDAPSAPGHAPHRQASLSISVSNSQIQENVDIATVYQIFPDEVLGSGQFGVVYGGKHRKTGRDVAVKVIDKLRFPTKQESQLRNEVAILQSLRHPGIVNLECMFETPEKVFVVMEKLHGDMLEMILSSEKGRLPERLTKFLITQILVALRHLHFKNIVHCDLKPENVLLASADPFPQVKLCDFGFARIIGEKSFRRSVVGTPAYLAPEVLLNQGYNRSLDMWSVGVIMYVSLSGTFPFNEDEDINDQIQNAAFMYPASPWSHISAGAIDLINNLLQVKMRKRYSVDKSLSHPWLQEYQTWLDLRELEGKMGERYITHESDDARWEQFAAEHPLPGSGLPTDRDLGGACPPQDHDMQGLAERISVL

[22] = molecular target: Ribosomal protein S6 kinase alpha-6 (Homo sapiens) (UniProt Q9UK32); conditions: Compound concentration 1000.0 nM
[23] = molecular target: SRSF protein kinase 3 (Homo sapiens) (UniProt Q9UPE1); conditions: Compound concentration 1000.0 nM
[24] = molecular target: Serine/threonine-protein kinase 35 (Homo sapiens) (UniProt Q8TDR2); conditions: Compound concentration 1000.0 nM
[25] = molecular target: Serine/threonine-protein kinase 36 (Homo sapiens) (UniProt Q9NRP7); conditions: Compound concentration 1000.0 nM
[26] = molecular target: Transient receptor potential cation channel subfamily M member 6 (Homo sapiens) (UniProt Q9BX84); conditions: Compound concentration 1000.0 nM
[27] = molecular target: Serine/threonine-protein kinase ULK3 (Homo sapiens) (UniProt Q6PHR2); conditions: Compound concentration 1000.0 nM
[28] = molecular target: Serine/threonine-protein kinase VRK2 (Homo sapiens) (UniProt Q86Y07); conditions: Compound concentration 1000.0 nM
[29] = molecular target: 5-hydroxytryptamine receptor 6 (Homo sapiens) (UniProt P50406); conditions: Compound concentration 10.0 uM
[30] = molecular target: Histamine H4 receptor (Homo sapiens) (UniProt Q9H3N8); conditions: Compound concentration 10.0 uM
[31] = molecular target: T1, Alpha-2A adrenergic receptor (Homo sapiens) (UniProt P08913); conditions: Compound concentration 10.0 uM
T1 sequence (whole entry): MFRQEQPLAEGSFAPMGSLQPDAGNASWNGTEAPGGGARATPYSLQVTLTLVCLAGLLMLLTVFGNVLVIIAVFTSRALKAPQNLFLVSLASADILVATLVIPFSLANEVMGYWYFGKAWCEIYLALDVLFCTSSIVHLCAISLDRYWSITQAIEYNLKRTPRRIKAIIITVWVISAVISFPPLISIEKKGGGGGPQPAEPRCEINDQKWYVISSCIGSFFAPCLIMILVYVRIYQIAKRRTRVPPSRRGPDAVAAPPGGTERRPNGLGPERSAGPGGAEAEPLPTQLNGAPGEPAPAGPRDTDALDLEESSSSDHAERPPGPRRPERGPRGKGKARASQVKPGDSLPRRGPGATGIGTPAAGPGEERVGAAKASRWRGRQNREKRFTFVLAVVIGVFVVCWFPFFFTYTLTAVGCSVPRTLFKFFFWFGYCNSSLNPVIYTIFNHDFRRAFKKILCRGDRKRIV

[32] = molecular target: Alpha-2B adrenergic receptor (Homo sapiens) (UniProt P18089); conditions: Compound concentration 10.0 uM
Sequence of Alpha-2B adrenergic receptor (Homo sapiens) (P18089 whole entry): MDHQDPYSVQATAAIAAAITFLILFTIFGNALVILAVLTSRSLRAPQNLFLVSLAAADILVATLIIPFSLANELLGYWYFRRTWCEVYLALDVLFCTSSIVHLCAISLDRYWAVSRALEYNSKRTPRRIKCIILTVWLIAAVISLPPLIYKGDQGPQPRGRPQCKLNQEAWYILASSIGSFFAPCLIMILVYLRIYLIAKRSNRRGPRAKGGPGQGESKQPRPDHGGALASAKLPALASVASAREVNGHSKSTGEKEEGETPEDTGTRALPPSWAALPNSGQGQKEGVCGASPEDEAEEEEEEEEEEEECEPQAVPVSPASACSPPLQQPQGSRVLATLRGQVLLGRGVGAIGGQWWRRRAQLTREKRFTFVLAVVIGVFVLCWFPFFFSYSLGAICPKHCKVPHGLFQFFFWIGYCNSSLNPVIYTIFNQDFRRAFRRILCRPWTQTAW

[33] = molecular target: T2, Muscarinic acetylcholine receptor M1 (Homo sapiens) (UniProt P11229); conditions: Compound concentration 10.0 uM
T2 sequence (whole entry): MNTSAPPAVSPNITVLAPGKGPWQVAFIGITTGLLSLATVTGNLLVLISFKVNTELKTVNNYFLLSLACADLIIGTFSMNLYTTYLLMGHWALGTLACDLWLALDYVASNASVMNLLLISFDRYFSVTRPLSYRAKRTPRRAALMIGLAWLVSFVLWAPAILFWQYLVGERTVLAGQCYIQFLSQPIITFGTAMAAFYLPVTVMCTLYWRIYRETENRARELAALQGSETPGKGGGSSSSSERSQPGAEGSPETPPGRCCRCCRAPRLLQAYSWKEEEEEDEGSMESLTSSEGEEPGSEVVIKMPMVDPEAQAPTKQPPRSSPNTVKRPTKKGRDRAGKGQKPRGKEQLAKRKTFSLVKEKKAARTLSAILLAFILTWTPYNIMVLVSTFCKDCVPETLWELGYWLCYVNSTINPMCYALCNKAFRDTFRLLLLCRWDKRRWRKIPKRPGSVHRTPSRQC

Sequence of Tyrosine-protein kinase ABL1 (Homo sapiens), P00519 [E255K] (P00519 whole entry E255K): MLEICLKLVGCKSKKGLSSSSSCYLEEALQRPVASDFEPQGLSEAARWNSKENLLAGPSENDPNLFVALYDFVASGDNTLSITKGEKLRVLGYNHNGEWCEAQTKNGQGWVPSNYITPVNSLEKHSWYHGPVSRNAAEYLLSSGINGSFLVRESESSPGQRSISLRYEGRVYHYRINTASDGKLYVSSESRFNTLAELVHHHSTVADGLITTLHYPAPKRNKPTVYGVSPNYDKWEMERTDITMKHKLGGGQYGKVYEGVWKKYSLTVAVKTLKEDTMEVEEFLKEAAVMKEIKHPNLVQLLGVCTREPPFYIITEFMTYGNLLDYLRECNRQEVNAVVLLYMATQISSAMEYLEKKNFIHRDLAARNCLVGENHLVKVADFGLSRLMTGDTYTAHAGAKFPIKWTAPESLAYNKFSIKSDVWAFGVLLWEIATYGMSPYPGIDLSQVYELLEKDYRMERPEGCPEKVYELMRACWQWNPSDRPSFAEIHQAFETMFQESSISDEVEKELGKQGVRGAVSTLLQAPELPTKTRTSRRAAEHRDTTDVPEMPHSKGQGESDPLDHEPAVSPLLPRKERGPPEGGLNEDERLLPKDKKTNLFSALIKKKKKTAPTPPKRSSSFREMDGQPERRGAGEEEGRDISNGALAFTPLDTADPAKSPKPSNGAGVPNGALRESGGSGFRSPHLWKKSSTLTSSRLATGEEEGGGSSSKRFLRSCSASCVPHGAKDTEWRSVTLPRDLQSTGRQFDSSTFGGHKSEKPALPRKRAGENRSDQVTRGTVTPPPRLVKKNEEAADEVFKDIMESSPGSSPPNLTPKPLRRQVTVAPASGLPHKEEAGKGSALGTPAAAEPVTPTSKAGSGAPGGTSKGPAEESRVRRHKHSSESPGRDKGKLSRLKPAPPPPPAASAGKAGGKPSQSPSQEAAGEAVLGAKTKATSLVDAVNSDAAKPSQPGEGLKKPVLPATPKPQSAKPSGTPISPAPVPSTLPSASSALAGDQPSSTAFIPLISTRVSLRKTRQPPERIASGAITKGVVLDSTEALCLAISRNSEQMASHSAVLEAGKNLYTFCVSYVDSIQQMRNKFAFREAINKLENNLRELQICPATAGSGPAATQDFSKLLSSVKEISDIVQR

O=C(N1CCS(=O)(=O)CC1)N1C[C@H](c2ccc(OC(F)(F)F)cc2)C[C@H](c2nc(C3CC3)no2)C1 [BAY-386]
inactive: residual activity [1] 100% | residual activity [2] 79% | residual activity [3] 99% | residual activity [4] 100% | residual activity [5] 100% | residual activity [6] 96% | residual activity [7] 88% | residual activity [8] 100% | residual activity [9] 100% | residual activity [10] 94% | residual activity [11] 80% | residual activity [12] 79% | residual activity [13] 100% | residual activity [14] 81% | residual activity [15] 100% | residual activity [16] 100% | residual activity [17] 100% | residual activity [18] 83% | residual activity [19] 100% | residual activity [20] 97% | residual activity [21] 100% | residual activity [22] 76% | residual activity [23] 100% | residual activity [24] 100% | residual activity [25] 100% | residual activity [26] 100% | residual activity [27] 93% | residual activity [28] 90% | inhibition [29] 2.78% | inhibition [30] -4.72% | inhibition [31] -0.34% | inhibition [32] 2.41% | inhibition [33] 2.07%

Cc1noc([C@H]2C[C@@H](c3ccc(C(F)(F)F)cc3)CN(C(=O)N3CCS(=O)(=O)C3)C2)n1 [BAY-448]
inactive: residual activity [1] 100% | residual activity [2] 100% | residual activity [3] 100% | residual activity [4] 89% | residual activity [5] 100% | residual activity [6] 100% | residual activity [7] 100% | residual activity [8] 100% | residual activity [9] 100% | residual activity [10] 85% | residual activity [11] 94% | residual activity [12] 88% | residual activity [13] 100% | residual activity [14] 84% | residual activity [15] 82% | residual activity [16] 64% | residual activity [17] 100% | residual activity [18] 100% | residual activity [19] 100% | residual activity [20] 100% | residual activity [21] 100% | residual activity [22] 98% | residual activity [23] 100% | residual activity [24] 99% | residual activity [25] 100% | residual activity [26] 100% | residual activity [27] 77% | residual activity [28] 91% | inhibition [29] 27.7% | inhibition [30] -2.74% | inhibition [31] 6.96% | inhibition [32] -2.77% | inhibition [33] -7.31%
